Series [1] in a line: acid dissociation constants by potentiometric titration. In kind it is physicochemical. As to the method:
The acid dissociation constants were determined by potentiometric titration method. […] The first is XH2+, where the carboxylic acid is not ionized but the secondary amine is; the molecule has an overall +1 charge, and the main species at pHs below 4.0. The second is XH, where both the carboxylic acid and the tertiary amine are ionized. […] The third is X−, where the carboxylic acid is ionized but the tertiary amine is not.

A short description of series [2]: pharmacokinetic properties of elagolix in healthy subjects. In kind it is in vivo, human. The conditions noted are these: minor pathways include CYP2D6, CYP2C8 and UGTs.
A short description of series [3]: pharmacokinetics in specific populations (renal and hepatic impairment). In kind it is in vivo, human. The source says: The mean exposures are similar for women with moderate to severe or end stage renal disease (including women on dialysis) compared to women with normal renal function.
Elagolix exposures (Cmax and AUC) are similar between women with normal hepatic function and women with mild hepatic impairment. Elagolix exposures in women with moderate and severe hepatic impairment are approximately 3-fold and 7-fold, respectively, of exposures from women with normal hepatic function.

The target in series [4] is T1, organic anion transporting polypeptide (OATP)1B1 (Homo sapiens, UniProt Q9Y6L6).
T1 sequence (Q9Y6L6 1-691): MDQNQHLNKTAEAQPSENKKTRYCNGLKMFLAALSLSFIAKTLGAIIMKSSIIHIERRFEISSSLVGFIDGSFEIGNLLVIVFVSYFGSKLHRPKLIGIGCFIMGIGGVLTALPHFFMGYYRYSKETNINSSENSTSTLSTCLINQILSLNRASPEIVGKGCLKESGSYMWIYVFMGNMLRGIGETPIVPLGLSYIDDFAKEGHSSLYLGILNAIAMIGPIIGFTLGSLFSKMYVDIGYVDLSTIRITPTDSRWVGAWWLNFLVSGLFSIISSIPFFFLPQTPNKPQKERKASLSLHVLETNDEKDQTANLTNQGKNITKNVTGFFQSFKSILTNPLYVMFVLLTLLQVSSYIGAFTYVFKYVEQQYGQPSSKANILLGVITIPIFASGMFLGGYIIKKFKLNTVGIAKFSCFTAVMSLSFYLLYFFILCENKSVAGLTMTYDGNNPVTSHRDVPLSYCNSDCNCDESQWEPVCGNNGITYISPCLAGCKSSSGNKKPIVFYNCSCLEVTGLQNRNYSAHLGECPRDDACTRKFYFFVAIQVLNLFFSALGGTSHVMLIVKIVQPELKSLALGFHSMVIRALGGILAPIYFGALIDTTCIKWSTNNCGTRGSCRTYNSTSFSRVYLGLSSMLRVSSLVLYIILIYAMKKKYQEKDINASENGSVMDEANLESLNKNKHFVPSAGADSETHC
Put plainly: substrate status: OATP1B1. The text has this: Elagolix is a substrate of CYP3A, P-gp, and organic anion transporting polypeptide (OATP)1B1. Clinically meaningful interactions are not expected when elagolix is co-administered with drugs that inhibit CYP3A or P-gp.

The test system of the next series is tumors in mouse. Put plainly: 2-year carcinogenicity study in mice. The format is in vivo. The conditions noted are these: any dose.
The test system of a further series is tumors in rat. The experiment in a line: 2-year carcinogenicity study in rats. In kind it is in vivo. The text has this: The rat tumors were identified as being species-specific and of negligible relevance to humans. This conclusion is based on a follow-on thyroid and hepatic effects-related investigative study performed to document the possibility that thyroid and liver tumors may be specific to rat and occurred via induction of hepatic drug metabolizing enzymes at the high dose.

The subject of series [5] is fertility and reproductive organs of rats. Put plainly: fertility study and repeat-dose study in rats. In kind it is in vivo, rat. The source says:
Based on pharmacologic actions of elagolix in humans a reversible effect on fertility may be expected in women.

Consider `COc1cccc(-c2c(C)n(Cc3c(F)cccc3C(F)(F)F)c(=O)n(C[C@H](NCCCC(=O)O)c3ccccc3)c2=O)c1F` [elagolix, 4-((R)-2-[5-(2-fluoro-3-methoxy-phenyl)-3-(2-fluoro-6-trifluoromethyl-benzyl)-4-methyl-2,6-dioxo-3,6-dihydro-2H-pyrimidin-1-yl]-1-phenyl-ethylamino)-butyric acid], for which, in series [1] (amine), the “pKa (B)” value is listed as 7.9. Besides, the “pKa (A)” value in series [1] (carboxylic acid) came to 4.0. Moreover, in series [2], the Metabolism entry is given as “CYP3A (major) Minor”. The “exposures in moderate hepatic impairment relative to normal hepatic function” value in series [3] (moderate hepatic impairment) is reported as “approximately 3 fold”. The “exposures (Cmax and AUC) in renal impairment” value in series [3] (moderate to severe or end stage renal disease vs normal renal function) is reported as “not altered”. The “exposures in severe hepatic impairment relative to normal hepatic function” value in series [3] is “approximately 7 fold”; in series [3] (listed as Elagolix) it was approximately 7 fold. The “exposures (Cmax and AUC) in mild hepatic impairment” value in series [3] (vs women with normal hepatic function) is “similar”. Moreover, in series [4], the “substrate of OATP1B1” value is given as “substrate”. Also, the “carcinogenicity: tumors” value in the series on tumors in mouse is “no increase in tumors”; with tumors in rat (2-year, high dose, considered species-specific) it was “increase in thyroid (male and female) and liver (males only) tumors”. Moreover, in the series on tumors in rat (both, in vivo, 2 years), the “margin of safety at the high dose” value is listed as 13 fold. The effect on fertility result in series [5] (fertility study, 50, 150, 300 mg/kg/day) is on record as “no effect”. In addition, the ovary findings result in series [5] (repeat-dose study, 600, 800 mg/kg/day) is “involution and a decrease in corpora lutea in ovaries”.
